Experimental data published in publication PMC5218480 (PLoS ONE, 2017).

System: MV-4-11 cells
Test: Gene expression microarray analysis (Affymetrix PrimeView) and GSEA
Assay type: cell-based, human
Design: RFU PODN (11730768_x_at) / Fold change /veh PODN (11730768_x_at) / RFU LINC00158 (11744669_a_at) / Fold change /veh LINC00158 (11744669_a_at) / RFU DUSP10 (11751237_a_at) / Fold change /veh DUSP10 (11751237_a_at) / RFU ID3 (11757404_x_at) / Fold change /veh ID3 (11757404_x_at) / RFU PLEKHG5 (11737974_s_at) / Fold change /veh PLEKHG5 (11737974_s_at) / RFU LRRC4B (11730491_at) / Fold change /veh LRRC4B (11730491_at) / RFU GIMAP4 (11747438_a_at) / Fold change /veh GIMAP4 (11747438_a_at) / RFU KRT8 (11758183_x_at) / Fold change /veh KRT8 (11758183_x_at) / RFU CNN1 (11734310_a_at) / Fold change /veh CNN1 (11734310_a_at) / RFU VPS37D (11726825_at) / Fold change /veh VPS37D (11726825_at) / RFU C10orf10 (11716522_x_at) / Fold change /veh C10orf10 (11716522_x_at) / RFU KIR2DL2 /// KIR2DL4 /// KIR2DL5A /// KIR2DL5B /// KIR2DS1 /// KIR2DS2 /// KIR2DS3 /// KIR2DS4 /// KIR3DL3 /// KIR3DL3 /// KIR3DS1 (11738374_at) / Fold change /veh KIR2DL2 /// KIR2DL4 /// KIR2DL5A /// KIR2DL5B /// KIR2DS1 /// KIR2DS2 /// KIR2DS3 /// KIR2DS4 /// KIR3DL3 /// KIR3DL3 /// KIR3DS1 (11738374_at) / RFU C1QL1 (11718748_at) / Fold change /veh C1QL1 (11718748_at) / RFU TMPRSS4 (11747572_a_at) / Fold change /veh TMPRSS4 (11747572_a_at) / RFU HAMP (11756126_x_at) / Fold change /veh HAMP (11756126_x_at) / RFU RNFT2 (11725882_a_at) / Fold change /veh RNFT2 (11725882_a_at) / RFU NR4A2 (11747474_a_at) / Fold change /veh NR4A2 (11747474_a_at) / RFU ABCC12 (11746883_a_at) / Fold change /veh ABCC12 (11746883_a_at) / RFU TMEM136 (11760407_x_at) / Fold change /veh TMEM136 (11760407_x_at) / RFU CLDN22 /// WWC2 (11732394_at) / Fold change /veh CLDN22 /// WWC2 (11732394_at) / RFU HLA-DPB1 (11760878_x_at) / Fold change /veh HLA-DPB1 (11760878_x_at) / RFU SPINT1 (11716480_a_at) / Fold change /veh SPINT1 (11716480_a_at) / RFU GAP43 (11754022_s_at) / Fold change /veh GAP43 (11754022_s_at) / RFU A4GNT (11735810_at) / Fold change /veh A4GNT (11735810_at) / RFU PRB3 (11715151_x_at) / Fold change /veh PRB3 (11715151_x_at) / RFU TUBB4B (11761932_at) / Fold change /veh TUBB4B (11761932_at) / RFU CAPN14 (11732068_a_at) / Fold change /veh CAPN14 (11732068_a_at) / RFU TMCC2 (11721928_a_at) / Fold change /veh TMCC2 (11721928_a_at) / RFU IRGQ (11745062_a_at) / Fold change /veh IRGQ (11745062_a_at) / RFU FAM174B (11720279_a_at) / Fold change /veh FAM174B (11720279_a_at) / RFU TMPRSS4 (11748680_a_at) / Fold change /veh TMPRSS4 (11748680_a_at) / RFU FAM212B (11763350_a_at) / Fold change /veh FAM212B (11763350_a_at) / RFU PLEKHG5 (11743358_a_at) / Fold change /veh PLEKHG5 (11743358_a_at) / RFU ZSCAN30 (11745921_a_at) / Fold change /veh ZSCAN30 (11745921_a_at) / RFU CMKLR1 (11741424_a_at) / Fold change /veh CMKLR1 (11741424_a_at) / RFU LOC101060620 /// MAPK8IP1 (11723275_at) / Fold change /veh LOC101060620 /// MAPK8IP1 (11723275_at) / RFU SPTSSB (11747773_x_at) / Fold change /veh SPTSSB (11747773_x_at) / RFU PRSS12 (11739890_at) / Fold change /veh PRSS12 (11739890_at) / RFU BIN1 (11741810_x_at) / Fold change /veh BIN1 (11741810_x_at) / RFU WNT11 (11732464_a_at) / Fold change /veh WNT11 (11732464_a_at) / RFU C10orf10 (11716521_a_at) / Fold change /veh C10orf10 (11716521_a_at) / RFU C5orf56 (11738089_at) / Fold change /veh C5orf56 (11738089_at) / RFU CYB561 (11721691_x_at) / Fold change /veh CYB561 (11721691_x_at) / RFU ANKRD19P (11752326_a_at) / Fold change /veh ANKRD19P (11752326_a_at) / RFU OR2T12 /// OR2T33 /// OR2T8 (11738714_s_at) / Fold change /veh OR2T12 /// OR2T33 /// OR2T8 (11738714_s_at) / RFU VCAN (11748164_a_at) / Fold change /veh VCAN (11748164_a_at) / RFU JSRP1 (11732532_at) / Fold change /veh JSRP1 (11732532_at) / RFU KRTAP10-11 (11738290_x_at) / Fold change /veh KRTAP10-11 (11738290_x_at) / RFU MYO3A (11730013_a_at) / Fold change /veh MYO3A (11730013_a_at) / RFU EBF3 (11725865_a_at) / Fold change /veh EBF3 (11725865_a_at) / RFU CAMK2N1 (11719241_x_at) / Fold change /veh CAMK2N1 (11719241_x_at) / RFU C5orf56 (11738088_a_at) / Fold change /veh C5orf56 (11738088_a_at) / RFU OLFML3 (11715873_a_at) / Fold change /veh OLFML3 (11715873_a_at) / RFU LOC100653217 /// NTM (11731650_a_at) / Fold change /veh LOC100653217 /// NTM (11731650_a_at) / RFU MAPK11 (11762145_a_at) / Fold change /veh MAPK11 (11762145_a_at) / RFU FIZ1 (11724087_x_at) / Fold change /veh FIZ1 (11724087_x_at) / RFU OASL (11726364_x_at) / Fold change /veh OASL (11726364_x_at) / RFU SOX15 (11748057_x_at) / Fold change /veh SOX15 (11748057_x_at) / RFU CD79A (11719716_a_at) / Fold change /veh CD79A (11719716_a_at) / RFU HIST1H1D (11736915_at) / Fold change /veh HIST1H1D (11736915_at) / RFU CASKIN2 (11723855_a_at) / Fold change /veh CASKIN2 (11723855_a_at) / RFU LOC730098 (11760151_x_at) / Fold change /veh LOC730098 (11760151_x_at) / RFU OR4N2 (11742367_at) / Fold change /veh OR4N2 (11742367_at) / RFU PRRT2 (11749266_a_at) / Fold change /veh PRRT2 (11749266_a_at) / RFU SNX32 (11753110_a_at) / Fold change /veh SNX32 (11753110_a_at) / RFU CDHR5 (11726645_a_at) / Fold change /veh CDHR5 (11726645_a_at) / RFU RCAN1 (11760418_a_at) / Fold change /veh RCAN1 (11760418_a_at) / RFU FAM167A (11723789_a_at) / Fold change /veh FAM167A (11723789_a_at) / RFU FAM26E (11764081_at) / Fold change /veh FAM26E (11764081_at) / RFU ISYNA1 (11749810_s_at) / Fold change /veh ISYNA1 (11749810_s_at) / RFU ACY1 (11761880_at) / Fold change /veh ACY1 (11761880_at) / RFU 11764098_at / Fold change /veh 11764098_at / RFU SAMD14 (11745864_x_at) / Fold change /veh SAMD14 (11745864_x_at) / RFU NPB (11741838_a_at) / Fold change /veh NPB (11741838_a_at) / RFU TMPRSS6 (11731388_a_at) / Fold change /veh TMPRSS6 (11731388_a_at) / RFU KRTAP10-2 (11738614_at) / Fold change /veh KRTAP10-2 (11738614_at) / RFU ARHGAP8 /// PRR5-ARHGAP8 (11727945_x_at) / Fold change /veh ARHGAP8 /// PRR5-ARHGAP8 (11727945_x_at) / RFU KRTAP5-7 /// NADSYN1 (11734609_at) / Fold change /veh KRTAP5-7 /// NADSYN1 (11734609_at) / RFU RASL12 (11751679_a_at) / Fold change /veh RASL12 (11751679_a_at) / RFU CDKN2B (11736163_a_at) / Fold change /veh CDKN2B (11736163_a_at) / RFU PRF1 (11729649_at) / Fold change /veh PRF1 (11729649_at) / RFU, ZNF638 /// ZNF638-IT1 / Fold change vs veh, ZNF638 /// ZNF638-IT1 / RFU, PANK3 / Fold change vs veh, PANK3 / RFU, SH3YL1 / Fold change vs veh, SH3YL1 / RFU, ZEB2 / Fold change vs veh, ZEB2 / RFU, NRIP1 / Fold change vs veh, NRIP1 / RFU, PTTG1IP / Fold change vs veh, PTTG1IP / RFU, CAPN2 / Fold change vs veh, CAPN2 / RFU, MED14 / Fold change vs veh, MED14 / RFU, SNORA58 / Fold change vs veh, SNORA58 / RFU, C1orf63 / Fold change vs veh, C1orf63 / RFU, LRRFIP1 / Fold change vs veh, LRRFIP1 / RFU, NDUFAF7 / Fold change vs veh, NDUFAF7 / RFU, SLC12A2 / Fold change vs veh, SLC12A2 / RFU, IBTK / Fold change vs veh, IBTK / RFU, ESF1 / Fold change vs veh, ESF1 / Fold change vs veh, TMEM50B / RFU, TAOK1 / Fold change vs veh, TAOK1 / RFU, ACBD3 / Fold change vs veh, ACBD3 / RFU, TMA16 / Fold change vs veh, TMA16 / RFU, RWDD3 / Fold change vs veh, RWDD3 / RFU, BCAT1 / Fold change vs veh, BCAT1 / RFU, EDEM3 / Fold change vs veh, EDEM3 / RFU, TMEM33 / Fold change vs veh, TMEM33 / RFU, WDR75 / Fold change vs veh, WDR75 / RFU, AHCTF1 / Fold change vs veh, AHCTF1 / RFU, TFRC / Fold change vs veh, TFRC / RFU, ZDHHC17 / Fold change vs veh, ZDHHC17 / RFU, NOM1 / Fold change vs veh, NOM1 / RFU, ARL8B / Fold change vs veh, ARL8B / RFU, ZBTB11 / Fold change vs veh, ZBTB11 / RFU, TAMM41 / Fold change vs veh, TAMM41 / RFU, KIAA1704 /// LOC100996395 / Fold change vs veh, KIAA1704 /// LOC100996395 / RFU, ING1 / Fold change vs veh, ING1 / RFU, TRMT61B / Fold change vs veh, TRMT61B / RFU, FUBP3 / Fold change vs veh, FUBP3 / RFU, TP53 / Fold change vs veh, TP53 / RFU, TNKS2 / Fold change vs veh, TNKS2 / RFU, ZFP14 / Fold change vs veh, ZFP14 / RFU, ACTR2 / Fold change vs veh, ACTR2 / RFU, PPP3R1 / Fold change vs veh, PPP3R1 / RFU, PIK3R1 / Fold change vs veh, PIK3R1 / RFU, HNRNPA1 / Fold change vs veh, HNRNPA1 / RFU, RNF170 / Fold change vs veh, RNF170 / RFU, ZNF28 / Fold change vs veh, ZNF28 / RFU, RNGTT / Fold change vs veh, RNGTT / RFU, OGT / Fold change vs veh, OGT / RFU, BRD1 / Fold change vs veh, BRD1 / RFU, MARS / Fold change vs veh, MARS / RFU, ZNF655 / Fold change vs veh, ZNF655 / RFU, FAHD1 / Fold change vs veh, FAHD1 / RFU, BDP1 / Fold change vs veh, BDP1 / RFU, LRRCC1 / Fold change vs veh, LRRCC1 / RFU, ARID1A / Fold change vs veh, ARID1A / RFU, ZNF146 / Fold change vs veh, ZNF146 / RFU, ZNF330 / Fold change vs veh, ZNF330 / RFU, GPN3 / Fold change vs veh, GPN3 / RFU, C9orf123 / Fold change vs veh, C9orf123 / RFU, N4BP2L2 / Fold change vs veh, N4BP2L2 / RFU, ARFIP1 / Fold change vs veh, ARFIP1 / RFU, FAM179B / Fold change vs veh, FAM179B / RFU, BCL10 / Fold change vs veh, BCL10 / RFU, UHRF1BP1L / Fold change vs veh, UHRF1BP1L / RFU, BET1 / Fold change vs veh, BET1 / RFU, CNOT2 / Fold change vs veh, CNOT2 / RFU, ZNF268 / Fold change vs veh, ZNF268 / Fold change vs veh, ZNF507 / RFU, DGCR2 / Fold change vs veh, DGCR2 / RFU, WDSUB1 / Fold change vs veh, WDSUB1 / Fold change vs veh, HSP90B1 /// MIR3652 / RFU, ADSS / Fold change vs veh, ADSS / RFU, GK / Fold change vs veh, GK / RFU, ZNF148 / Fold change vs veh, ZNF148 / RFU, TAF9 / Fold change vs veh, TAF9 / RFU, SLC1A5 / Fold change vs veh, SLC1A5 / RFU, SLMO2 / Fold change vs veh, SLMO2 / RFU, ABCC4 / Fold change vs veh, ABCC4 / RFU, LOC101060439 /// RAP1B / Fold change vs veh, LOC101060439 /// RAP1B / RFU, RFX7 / Fold change vs veh, RFX7 / RFU, GTPBP10 / Fold change vs veh, GTPBP10 / RFU, CNEP1R1 / Fold change vs veh, CNEP1R1 / RFU, BIVM-ERCC5 /// ERCC5 / Fold change vs veh, BIVM-ERCC5 /// ERCC5 / RFU, ILF3 / Fold change vs veh, ILF3 / RFU 11762660_at / Fold change /veh 11762660_at / RFU VCAN (11757783_s_at) / Fold change /veh VCAN (11757783_s_at) / RFU DDX43 (11728927_at) / Fold change /veh DDX43 (11728927_at) / RFU KRT8 (11758188_x_at) / Fold change /veh KRT8 (11758188_x_at) / RFU NKD1 (11759106_at) / Fold change /veh NKD1 (11759106_at) / RFU SRD5A1 (11742802_a_at) / Fold change /veh SRD5A1 (11742802_a_at) / RFU TPSAB1 /// TPSB2 (11721975_s_at) / Fold change /veh TPSAB1 /// TPSB2 (11721975_s_at) / RFU GSTM3 (11746129_a_at) / Fold change /veh GSTM3 (11746129_a_at) / RFU IL23R (11737362_x_at) / Fold change /veh IL23R (11737362_x_at) / RFU TMEM51 (11727254_a_at) / Fold change /veh TMEM51 (11727254_a_at) / RFU PIWIL2 (11732686_x_at) / Fold change /veh PIWIL2 (11732686_x_at) / RFU ORM1 (11744905_x_at) / Fold change /veh ORM1 (11744905_x_at) / RFU CCDC152 (11743942_at) / Fold change /veh CCDC152 (11743942_at) / RFU ECM1 (11717891_a_at) / Fold change /veh ECM1 (11717891_a_at) / RFU IL23R (11748794_a_at) / Fold change /veh IL23R (11748794_a_at) / RFU TNFAIP8L3 (11732012_x_at) / Fold change /veh TNFAIP8L3 (11732012_x_at) / RFU MBOAT4 (11741988_at) / Fold change /veh MBOAT4 (11741988_at) / RFU 11764193_at / Fold change /veh 11764193_at / RFU TMEM53 (11763286_at) / Fold change /veh TMEM53 (11763286_at) / RFU MAGEB2 (11727129_at) / Fold change /veh MAGEB2 (11727129_at) / RFU TMEM200A (11744735_a_at) / Fold change /veh TMEM200A (11744735_a_at) / RFU CCDC152 (11751479_a_at) / Fold change /veh CCDC152 (11751479_a_at) / RFU FAM211A (11726209_a_at) / Fold change /veh FAM211A (11726209_a_at) / RFU RGS16 (11746705_a_at) / Fold change /veh RGS16 (11746705_a_at) / RFU VCAN (11755009_s_at) / Fold change /veh VCAN (11755009_s_at) / RFU RHOB (11743442_s_at) / Fold change /veh RHOB (11743442_s_at) / RFU RGS16 (11720943_a_at) / Fold change /veh RGS16 (11720943_a_at) / RFU RGS16 (11720944_at) / Fold change /veh RGS16 (11720944_at) / RFU, VPS4B / Fold change vs veh, VPS4B / RFU, CREB1 / Fold change vs veh, CREB1 / RFU, DNAJC13 / Fold change vs veh, DNAJC13 / RFU, GNAQ / Fold change vs veh, GNAQ / RFU, CDK5R1 / Fold change vs veh, CDK5R1 / RFU, ZRANB3 / Fold change vs veh, ZRANB3 / RFU, CUL4A / Fold change vs veh, CUL4A / RFU, CCNY / Fold change vs veh, CCNY / RFU, UFL1 / Fold change vs veh, UFL1 / RFU, COG3 / Fold change vs veh, COG3 / RFU, DIAPH2 / Fold change vs veh, DIAPH2 / RFU, SKA2 / Fold change vs veh, SKA2 / RFU, AFF3 / Fold change vs veh, AFF3 / RFU, LMF1 / Fold change vs veh, LMF1 / RFU, IPO11 / Fold change vs veh, IPO11 / RFU, DFFB / Fold change vs veh, DFFB / RFU, FOXP1 / Fold change vs veh, FOXP1 / RFU, CARD8 / Fold change vs veh, CARD8 / RFU, STRN3 / Fold change vs veh, STRN3 / RFU, ADK / Fold change vs veh, ADK / RFU, RASSF2 / Fold change vs veh, RASSF2 / RFU, WIPF1 / Fold change vs veh, WIPF1 / RFU, LARP1B / Fold change vs veh, LARP1B / RFU, RASA1 / Fold change vs veh, RASA1 / RFU, RB1 / Fold change vs veh, RB1 / RFU, PPFIA1 / Fold change vs veh, PPFIA1 / RFU, MAT2A / Fold change vs veh, MAT2A / RFU, CCT5 / Fold change vs veh, CCT5 / RFU, WDR92 / Fold change vs veh, WDR92 / RFU, CUX1 / Fold change vs veh, CUX1 / RFU, TTC7A / Fold change vs veh, TTC7A / RFU, TMEM135 / Fold change vs veh, TMEM135 / RFU, DEPTOR / Fold change vs veh, DEPTOR / RFU, CPM / Fold change vs veh, CPM / RFU, DNAJB6 / Fold change vs veh, DNAJB6 / RFU, CACNA2D3 / Fold change vs veh, CACNA2D3 / RFU, DTX4 / Fold change vs veh, DTX4 / RFU, TFCP2 / Fold change vs veh, TFCP2 / RFU, GMCL1 /// GMCL1P1 / Fold change vs veh, GMCL1 /// GMCL1P1 / RFU, AEBP2 / Fold change vs veh, AEBP2 / RFU, SNHG1 /// SNORD22 /// SNORD25 /// SNORD26 /// SNORD27 /// SNORD28 /// SNORD29 /// SNORD31 / Fold change vs veh, SNHG1 /// SNORD22 /// SNORD25 /// SNORD26 /// SNORD27 /// SNORD28 /// SNORD29 /// SNORD31 / Fold change (Aza/veh), C12orf56 (ProbeSet 11735607_a_at) / Fold change (ACY-1035/veh), C12orf56 (ProbeSet 11735607_a_at) / Fold change (Aza/veh), FGFR1OP (ProbeSet 11751329_s_at) / Fold change (ACY-1035/veh), FGFR1OP (ProbeSet 11751329_s_at) / Fold change (Aza/veh), VPS36 (ProbeSet 11739960_a_at) / Fold change (ACY-1035/veh), VPS36 (ProbeSet 11739960_a_at) / RFU SYPL1 (11715823_x_at) / Fold change /veh SYPL1 (11715823_x_at) / RFU IGFBP7 (11715501_s_at) / Fold change /veh IGFBP7 (11715501_s_at) / RFU REEP3 (11722064_at) / Fold change /veh REEP3 (11722064_at) / RFU IGLL1 (11728026_x_at) / Fold change /veh IGLL1 (11728026_x_at): dose or concentration left out as unconfirmed
Details: ProbeSet 11722022_s_at; LIST D

Nc1ncn([C@@H]2O[C@H](CO)[C@@H](O)[C@H]2O)c(=O)n1 [azacitidine]
RFU, CDK5R1: 40.46 RFU
